Assay results from patent US12060334B2, “3-substituted phenazine derivatives as antimicrobial agents” (University of Florida Research Foundation, Incorporated, priority 2021, dated 2024).
Values after ≈ are worked out from the molar mass of the structure shown. Values joined by “and” are separate entries in the source; they are usually repeats but may differ in a detail not shown here. Equal values may be shown once. “Also recorded” adds a separate entry of the source. Read-outs that look alike come from different tables or passages of the source. Marks after values point to notes of the source that are not given here.

Assays:
MRSA-1707 = test: MIC susceptibility assay (broth microdilution); conditions: 16 h; for MIC: Staphylococcus aureus, MRSA, read-out: MIC MRSA-1707, planktonic growth inhibition, 16 h, 37° C.; for MIC MRSA-1707: planktonic growth inhibition, 37° C.
Protocol: (§1) (MIC values were further supported by spectrophotometric readings at OD600). The concentration range tested for each HP compound during this study was 0.05 to 50 μM. DMSO served as our vehicle and negative control in each microdilution MIC assay. DMSO was serially diluted with a top concentration of 0.5% v/v.

S. epidermidis = test: Antibacterial MIC, initial phenazine collection; type: cell-based; conditions: Staphylococcus epidermidis; initial discovery; read-out: MIC against S. epidermidis
S. aureus = test: Antibacterial MIC, initial phenazine collection; type: cell-based; conditions: Staphylococcus aureus; initial discovery; read-out: MIC against S. aureus
MRSE 35984 = test: MIC susceptibility assay (broth microdilution); conditions: Staphylococcus epidermidis, MRSE, 16 h, read-out: MIC MRSE 35984
Protocol: as §1

MRSA-44 = test: MIC susceptibility assay (broth microdilution); conditions: Staphylococcus aureus, 16 h, read-out: MIC MRSA-44
Protocol: as §1

E. faecalis OG1RF [1] = test: MIC susceptibility assay (broth microdilution); conditions: Enterococcus faecalis, 16 h, read-out: MIC E. faecalis OG1RF
Protocol: as §1

MRSA 1 = test: MIC assay against clinical isolate; type: cell-based, S. aureus; conditions: Staphylococcus aureus
[2] = pKa determination by UV-vis spectroscopy; type: physicochemical
Protocol: (c) pKa determination of select HP analogues.^36 Dissociation constants (pKa) for select HP analogues were determined using UV-vis spectroscopy and the Henderson-Hasselbalch equation. Buffers were prepared using potassium phosphate monobasic (KH2PO4) and sodium phosphate dibasic ([…]) in a 1:1 solution of water:methanol to achieve a pH range of 4.07 to 9.66 (ammonium hydroxide was added to prepare buffer pH over 9.80). Compounds were added from 10 mM stock solutions in dimethyl sulfoxide (25 μL) to 1975 μL of each buffer to each evaluate analogue to yield a final compound concentration of 125 μM. Full spectral scans were performed from 200 to 800 nm in 2 nm increments to determine λmax values for the protonated phenol (HA) and the deprotonated phenolate species (A^−). The change in absorption at each determined λmax in relation to pH was monitored in each buffer and plotted as absorbance versus pH for each species. The pKa was first estimated by determining the pH of the point of intersection of the two linear curves. The visual estimation was confirmed by plotting pH versus log [A^−/HA]. The resulting plot yielded a linear regression line with a Y-intercept corresponding to a calculated pKa value.

human red blood cells = test: Hemolysis assay with red blood cells
Protocol: Hemolysis assays are used to determine the membrane-lysis activity of a compound, which is of particular interest to this work as membrane-lysing agents (e.g., QACs) can eradicate biofilms.
Cytotoxicity Assay against HEK-293 Cells.^48 The viability of HEK-293 cells was assessed by the MTT assay. The cells were cultured in DMEM medium containing 10% fetal bovine serum and 100 U/mL penicillin and streptomycin. The cells (10^4 cells/well) were seeded onto a 96-well plate and maintained at 37° C. in a humidified incubator under 5% CO2 overnight. […] After incubation at 37° C. for 72 hours, 10 μL of MTT (5 mg/mL) in PBS was added to each well and incubated for 4 hours, followed by the aspiration of the medium. Dimethyl sulfoxide (DMSO, 100 μL) was then added to each well to dissolve the MTT in the wells, and the plate was agitated for 1 hour. The optical density (OD) was measured at 570 nm using a UV/vis microplate spectrophotometer (BioTek). The percent inhibition was calculated as follows: Inhibition (%)=(1−test OD570/non-treated OD570)×100%. The data were analyzed by Origin. Hemolysis Assay with Red Blood Cells. […] The washing was repeated three times with the buffer. In 96-well plate, test compounds were added to the buffer from DMSO stocks. […] The plate was then incubated for 1 hour at 37° C. After incubation, the plate was centrifuged for 5 minutes at 3,500 rpm before 80 μL of the supernatant was transferred to another 96-well plate to obtain an optical density (OD) read at 405 nm. DMSO served as the negative control (0% hemolysis) while Triton X served as the positive control (100% hemolysis) in these experiments. The percent hemolysis was calculated as (OD405 of the compound treated RBCs−OD405 DMSO control)/(OD405 Triton X treated RBCs−OD405 buffer) from three independent experiments.

E. faecalis OG1RF [3] = test: E. faecalis dorsal wound infection model in mice; conditions: C57BL/6J mice, topical PEG ointment once a day, day 3
Text: (§2) In separate experiments, wounds were created on the mouse's dorsal mid-section using a biopsy punch to remove the dermal layer. The resulting wound was inoculated with either S. aureus UAMS-1 (1×10^7 CFU/mL), or E. faecalis OG1RF ([…] CFU/mL) to establish infection.
Enterococcus faecalis strain OG1RF was used in animal experiments during these investigations. Seven-week old female C57BL/6J mice were purchased from Jackson Laboratories Ltd. and housed according to the University of Florida's approved IACUC protocol 201709769.
E. faecalis Dorsal Wound Infection Model. […] On day 3 (2 days of treatment) post-infection, animals were euthanized and the wounds aseptically excised using a surgical blade and the tissues homogenized in 1 mL of sterile PBS. The homogenates were serially diluted and plated on trypticase soy (TSA) agar containing rifampicin and fusidic acid for bacterial enumeration.

MRSA 2 = test: MIC assay against clinical isolate; type: cell-based, S. aureus; conditions: Staphylococcus aureus
[4] = system: MRSA, MRSE and VRE strains; test: MIC assays, summary statements over several Gram-positive strains; conditions: for MICs against all Gram-positive strains in the panel: result in words
Protocol: as §1

HEK-293 cells = test: MTT cytotoxicity assay, HEK-293; conditions: read-out: HEK-293 Cytotox. (IC50), 72-h
[5] = system: isdB, sfaA, sbnC, MW0695 transcripts in MRSA-1707 biofilms; test: RT-qPCR of iron uptake genes in MRSA biofilms; conditions: 4 h treatment at 1 μM or 1/10×MBEC
HepG2 cells = test: Alamar Blue cytotoxicity assay, HepG2; conditions: read-out: Hep G2 Cytotox. (IC50), 24-h
S. aureus 138 = test: MIC assay against clinical isolate; type: cell-based; conditions: Staphylococcus aureus
J774 MΦ = test: Alamar Blue cytotoxicity assay, J774 macrophages; conditions: read-out: J774 MΦ Cytotox. (IC50), 24-h
S. aureus UAMS-1 = test: S. aureus dermal (dorsal) wound infection model in mice; conditions: BALB/c mice, topical 2% PEG ointment every 12 hours, three consecutive days
Text: as §2
Staphylococcus aureus strain UAMS-1, a well-characterized antibiotic susceptible clinical isolate commonly used to study the organism's biofilm formation and colonization properties, was used in animal experiments during these studies.^59 Female BALB/c mice 4 to 6 weeks of age were obtained from Charles River Laboratories International, Inc. (Wilmington, MA) and housed individually according to approved University of Rochester Medical Center Council on Animal Research (UCAR) protocol UCAR-101864/2017-022.
S. aureus Dermal Wound Infection Model. The effects of ointment compilations were evaluated for in vivo antimicrobial activity using a dermal wound infection mouse model, as previously described.^52 Briefly, mice were anesthetized by intraperitoneal injection with a mixture of 100 mg kg^−1 Ketamine (Hospira Inc., Lake Forest IL) and 10 mg kg^−1 Xylazine (Lloyd Laboratories, Shenandoah IA) in PBS. Two mg kg^−1 meloxicam (Henry Schein Animal Health, Portland, ME) was administered prior to dermal wounding. […]

S. aureus 129 = test: MIC assay against clinical isolate; type: cell-based; conditions: Staphylococcus aureus
HeLa cells = test: LDH release assay for HeLa cytotoxicity; conditions: read-out: HeLa Cell Cytotox. (IC50), 24-h, tested at 25, 50 and 100 μM
Mtb CDC1551 = test: microbe, parasite or virus in culture; type: cell-based, Mycobacterium tuberculosis
S. aureus 156 = test: MIC assay against clinical isolate; type: cell-based; conditions: Staphylococcus aureus, 156, read-out: MIC S. aureus 156
S. aureus 147 = test: MIC assay against clinical isolate; type: cell-based; conditions: Staphylococcus aureus, 147; clinical isolate; read-out: MIC S. aureus 147
VRE 700221 biofilms = test: Calgary Biofilm Device (CBD) assay; conditions: Enterococcus, read-out: VRE 700221 MBC
[6] = system: E. faecalis OG1RF biofilms; test: Calgary Biofilm Device (CBD) assay; conditions: Enterococcus faecalis, OG1RFBIOFILMS, read-out: E.faecalis OG1RF MBC
MRSE 35984 biofilms = test: Calgary Biofilm Device (CBD) assay; conditions: for MBC: Staphylococcus epidermidis, MRSE, read-out: MRSE 35984 MBC
MRSA 44 biofilms = test: Calgary Biofilm Device (CBD) assay; conditions: biofilm eradication in CBD assay
[7] = system: isdB, sfaA, sbnC, MW0695 transcripts in MRSA-1707 biofilms; conditions: at 5 μM, reported earlier; cited from earlier work
MRSA-1707 biofilms = test: Calgary Biofilm Device (CBD) assay; conditions: Staphylococcus aureus, read-out: MRSA-1707 MBC
[8] = system: S. aureus strain ATCC 29213; test: MIC against methicillin-susceptible strain; type: cell-based; conditions: Staphylococcus aureus, ATCC29213; strain susceptible to methicillin
[9] = Mycobacterium tuberculosis, CDC1551, 120 h

Row | Compound | MIC (MRSA-1707) | MIC (MRSE 35984) | MIC (MRSA-44) | MIC (E. faecalis OG1RF [1]) | MIC (MRSA 1) | % Hemolysis at 200 μM (human red blood cells; human RBCs, 1 hour, 37° C.) | MIC (MRSA 2) | MIC (S. aureus 138) | MIC (S. aureus 129) | MIC (S. aureus 156) | MIC (S. aureus 147) | MBC [6] | further results
1 | Oc1c(Br)ccc2nc3ccccc3nc12 [Compound 1, 2-bromo-1-hydroxyphenazine, reference compound] | 3.13 µM (≈ 0.861 µg/mL) | 3.13 µM (≈ 0.861 µg/mL) | 3.13 µM (≈ 0.861 µg/mL) | 18.8 µM (≈ 5.17 µg/mL) |  |  |  |  |  |  |  |  | MIC (S. epidermidis): 6.25 µM (≈ 1.72 µg/mL); MIC (S. aureus): 6.25 µM (≈ 1.72 µg/mL)
2 | Cc1cccc2nc3c(O)c(Br)c(Cl)c(Br)c3nc12 [Compound 29, 2,4-Dibromo-3-chloro-6-methylphenazin-1-ol] |  |  | 0.08 µM (≈ 0.0322 µg/mL) | 0.3 µM (≈ 0.121 µg/mL) | 0.06 µM (≈ 0.0241 µg/mL) | ≤1% | 0.12 µM (≈ 0.0483 µg/mL) | 0.08 µM (≈ 0.0322 µg/mL) | 0.12 µM (≈ 0.0483 µg/mL) | 0.08 µM (≈ 0.0322 µg/mL) | 0.12 µM (≈ 0.0483 µg/mL) |  | MIC MRSA-1707 (MRSA-1707): 0.08^a μM; pKa [2]: 6.79; log10 reduction of E. faecalis OG1RF compared to vehicle control (E. faecalis OG1RF [3]): 1.73 log10; MIC ([4]; read-out: MIC against MRSA, MRSE and VRE strains): 0.05 to 0.1 µM (≈ 0.0201 to 0.0402 µg/mL); MIC ([4]; read-out: MIC against MRSA/MRSE strains): 0.075 µM (≈ 0.0302 µg/mL); MICs against all Gram-positive strains in the panel [4]: sub-micromolar; IC50 (HEK-293 cells): 18.3 ± 5.8 µM; iron starvation / up-regulation of iron uptake genes in MRSA-1707 biofilms [5]: induction of iron starvation; also recorded: up-regulating iron uptake genes; also recorded: induced rapid iron starvation; also recorded: rapidly induce iron starvation; IC50 (HepG2 cells): > 200 µM; IC50 (J774 MΦ): > 200 µM; log10 reduction in CFU per lesion of S. aureus UAMS-1 compared to vehicle (S. aureus UAMS-1): 0.82 log10; IC50 (HeLa cells): > 100 µM; MIC (Mtb CDC1551): 1.59 µM (≈ 0.64 µg/mL); MIC (Mtb CDC1551; [9]): 1.59 µM (≈ 0.64 µg/mL)
3 | Oc1c(Br)c(Cl)c(Br)c2nc3c(Cl)cc(Cl)cc3nc12 [Compound 34, 2,4-Dibromo-3,6,8-trichlorophenazin-1-ol] | 0.59 µM (≈ 0.27 µg/mL) | ≤ 0.05 µM | 0.15 µM (≈ 0.0686 µg/mL) | 0.3 µM (≈ 0.137 µg/mL) | 1.25 µM (≈ 0.572 µg/mL) | ≤1% | 0.94 µM (≈ 0.43 µg/mL) | 0.94 µM (≈ 0.43 µg/mL) | 0.63 µM (≈ 0.288 µg/mL) | 0.47 µM (≈ 0.215 µg/mL) | 0.47 µM (≈ 0.215 µg/mL) | 3.13 µM (≈ 1.43 µg/mL) | MIC MRSA-1707 (MRSA-1707): 0.59^a μM and 0.59 μM; MICs against all Gram-positive strains in the panel [4]: sub-micromolar; IC50 (HepG2 cells): > 200 µM; MBC (VRE 700221 biofilms): 0.39 µM (≈ 0.178 µg/mL); IC50 (J774 MΦ): > 200 µM; log10 reduction of viable MRSE biofilm cells (MRSE 35984 biofilms; CFU counts from CBD pegs, at the MBEC value): 3.18±0.40 log10; MBC (MRSE 35984 biofilms): 0.59 µM (≈ 0.27 µg/mL); log10 reduction of viable CFUs, MRSE 35984 biofilm (MRSE 35984 biofilms; at 3.13 μM): ~5 log10; MRSA 44 MBEC (MRSA 44 biofilms): 6.25^b/6.25^b μM; IC50 (HeLa cells): > 100 µM; MIC (Mtb CDC1551; [9]): 0.8 µM (≈ 0.366 µg/mL)
4 | Oc1c(Br)c(Br)c(Br)c2nc3ccccc3nc12 [Compound 150] | 0.1 µM (≈ 0.0433 µg/mL) | 0.3 µM (≈ 0.13 µg/mL) |  |  |  |  |  |  |  |  |  |  | melting point: 222 to 224 °C
5 | O=C(O)CN(CCN(CC(=O)O)CC(=O)O)CC(=O)O [EDTA, ethylenediaminetetraacetic acid, reference compound] |  |  | 125 µM (≈ 36.5 µg/mL) | 500 µM (≈ 146 µg/mL) |  |  |  |  |  |  |  | > 2000 µM | up-regulation of panel of iron uptake genes [7]: did not upregulate this panel of iron uptake genes; % Hemolysis at 200 μM (human red blood cells; human, 1 h, pH 7.2): ≤1%; MBC (MRSA-1707 biofilms): > 2000 µM; MBC (MRSE 35984 biofilms): 1000 µM (≈ 292 µg/mL)
6 | COc1cccc(OC)c1C(=O)N[C@@H]1C(=O)N2[C@@H]1SC(C)(C)[C@@H]2C(=O)O [Methicillin, reference compound] |  |  |  |  | 37.5 µM (≈ 14.3 µg/mL) |  | > 100 µM | 37.5 µM (≈ 14.3 µg/mL) | 37.5 µM (≈ 14.3 µg/mL) | 37.5 µM (≈ 14.3 µg/mL) | 6.25 µM (≈ 2.38 µg/mL) |  | MIC [8]: 0.78 µM (≈ 0.297 µg/mL)
7 | c1ccc(CN(CCN(Cc2ccccn2)Cc2ccccn2)Cc2ccccn2)nc1 [TPEN, N,N,N′,N′-tetrakis(2-pyridinylmethyl)-1,2-ethanediamine, reference compound] | 46.9 µM (≈ 19.9 µg/mL) |  | 46.9 µM (≈ 19.9 µg/mL) | 46.9 µM (≈ 19.9 µg/mL) |  | ≤1% |  |  |  |  |  | 500 µM (≈ 212 µg/mL) | up-regulation of panel of iron uptake genes [7]: did not upregulate this panel of iron uptake genes; MBC (MRSA-1707 biofilms): 375 µM (≈ 159 µg/mL); MBC (VRE 700221 biofilms): 188 µM (≈ 79.8 µg/mL)
